Assay results published in article PMC11212260, “Next-generation neuropeptide Y receptor small-molecule agonists inhibit mosquito-biting behavior” (Parasites & Vectors, 2024).
“And” between values parts separate entries of the source, which are not always exact repeats. Identical values can stand only once. Like-named read-outs stand apart in the source and are kept apart here.

How the values were obtained:
[1] = molecular target: Ae. aegypti NPYLR7 (Aedes aegypti, UniProt U5N1H5); test: In vitro calcium (GCaMP6s) FLIPR assay in HEK293T cells transfected with NPYLR7; type: cell-based; settings: for RFU: assay date 1/11/20 plate 1, duplicate wells, listed as TDI-012615-NX-1; for activation at 100 µM: single replicate of the dose-response curve
Procedure: The in vitro screening assay was adapted from, and carried out at HD Biosciences (HDB, Shanghai) as follows: HEK293T (Thermo Fisher Scientific) cells were grown in Dulbecco’s modified Eagle medium (DMEM) (high glucose, with glutamine), 10% fetal bovine serum, 1% penicillin–streptomycin (Pen/Strep), seeded in a 75 cm^2 flask, and incubated at 37 °C and 5% CO2. Cells were transiently transfected with 1 μg of each plasmid expressing GCaMP6s (Addgene […]) (Chen et al., 2013), mouse Gqα15 (Addgene #40753) (Offermanns and Simon, 1995) and Ae. aegypti NPYLR7 (Addgene #52392) (Duvall et al. 2019) using Lipofectamine 2000 (Invitrogen) in 4 ml of Opti-MEM (Invitrogen). This mixture was added to a plate after 20 min and incubated for 6–8 h. Cells were then trypsinized, resuspended in phenol-free media, and plated in a 384-well plate (Greiner Bio-One) at a density of 20,000 cells per 40 μl, and incubated overnight (37 °C, 5% CO2). Cells were imaged directly in phenol-free media. Plates were loaded into a Molecular Devices fluorescence imaging plate reader (FLIPR) with an excitation wavelength of 470–495 nm and an emitted wavelength of 515–575 nm. Plates were imaged every second for 5 min. After 30 s of baseline fluorescence recording, 10 μl of the test compound in reading buffer [Hank’s Balanced Salt Solution (Gibco) + 20 mM HEPES (Sigma-Aldrich)] was added. Concentrations tested ranged from 0 to 100 μM. Data were collected in raw fluorescence units (RFU).
Each test plate included replicates of 10 μM FMRFa3 (H‐Ala‐Gly‐Gln‐Gly‐Phe‐Met‐Arg‐Phe‐NH2), an Ae. aegypti neuropeptide agonist of NPYLR7 used to calculate the hundred percent effect (HPE). The zero percent effect (ZPE) control was calculated as a response to buffer alone. The Z′ factor was calculated for each plate by Z^′=1-3σHPE+3σZPE/|μHPE-μZPE| . Plates with Z′ < 0.5 were excluded from analysis. Raw fluorescence units (RFU) were converted to percent effect relative to the average of the ZPE and HPE. Percent effect = (sample luminescence − average ZPE)/(average HPE − average ZPE)×100. […] Each replicate was plotted as percent effect versus log[concentration], and replicates with maximal responses between 20 and 250% were used for EC50 calculations. Relative EC50 was calculated using an [Agonist] versus response–variable slope four-parameter model where Y=Bottom+(X^Hillslope)∗(Top-Bottom)/(X^HillSlope+EC50^HillSlope) . For compounds with multiple replicates, the relative EC50 of each replicate was averaged.

[2] = tested on: Aedes aegypti (Orlando strain) females; test: Host-seeking screening assay (miniport olfactometer); type: in vivo; settings: fed 1 μM in saline, tested 48 h post-meal; for Attraction (relative to saline): per-compound value of Fig. 3C; for Host-seeking relative to saline (test compound % host-seeking/average matched saline % host-seeking): individual replicates
Procedure: Groups of 60–150 females were placed in bucket cages with a diameter of 21.6 cm and height of 16.5 cm (VWR) and fasted with access to water for 24 h prior to feeding. Meals were delivered to females via Glytube membrane feeders as described previously. Meals consisted of 1.5 ml sheep blood (HemoStat Laboratories), saline (400 mM NaHCO3 + dih2O), or saline and test compound. Lyophilized compounds were stored at room temperature until use. High-concentration stocks (30 mM in 100% dimethyl sulfoxide [DMSO]) (Sigma-Aldrich) were stored at −20 °C and diluted in saline immediately prior to feeding. Once prepared, meals and glycerol heating elements were warmed in a 42 °C water bath for 15 min to provide warmth to attract mosquitos to feed. ATP (1 mM final concentration) and test compounds (1 μM final concentration) were added prior to placing the meal on top of the mesh on the cage containing female mosquitos. Females were allowed 15–20 min to feed to repletion. Abdominal engorgement was scored by eye and confirmed by weighing females to ensure full feeding (Data S1). […] Females were returned to their original cage with a diH2O wick for 48 h prior to behavioral testing. The lethality of each compound was measured by counting the number of dead females in each cage 24 h post-meal.
Miniport olfactometers were fabricated in-house as described previously. Information regarding design, construction, and use can be found at https://github.com/VosshallLab/Miniport-Construction. Miniport canisters consisted of a 6″ × 3″ × 3″ acrylic tube with a mesh screen to allow for air flow. Groups of 10–20 females were loaded into canisters 24 h post-meal. Females were left in canisters overnight to acclimate with two cotton balls soaked in diH20 to prevent desiccation. Behavior trials began 48 h post-meal. Canisters were randomly assigned to attraction traps 1–4 and given 5 min to acclimate. The stimulus end of the trap was connected to a flowmeter that supplied 5% CO2 at a rate of 30 ml/min. Thirty seconds of CO2 flow was supplied to activate females prior to opening the sliding door. Once opened, the sliding door gave females access to the attraction trap baited with a human-scented nylon stocking previously worn by the same experimenter for 8–10 h to collect body odor and stored in a plastic bag at −20 °C until use. After 5 min, the sliding door was closed and attraction was scored as mosquitoes in the attraction trap/total number of mosquitoes. For each experiment data were normalized to the matched average saline attraction from the same experiment (% attracted/average saline attraction). Any dead mosquitoes were excluded from the analysis. Non-fed females and blood-fed females served as environmental control groups while the saline-fed females served as the vehicle control each day. If non-fed or saline-fed females were less than 50% attracted or if blood-fed females were more than 20% attracted behavioral trials were halted and all data from that experimental day were discarded.

[3] = Figure 1E Summary, third list (n = 39), read-out: Reported Metric (Summary list)
[4] = relative EC50, percent effect relative to 10 μM FMRFa3, read-out: EC50
[5] = EC50 of the individual assay date/plate (assay date), read-out: EC50
[6] = Figure 1E Summary, second list (n = 48), read-out: Reported Metric (Summary list)
[7] = HEK-293T, single replicate, normalised response
[8] = HEK-293T, 100 uM, normalised response
[9] = sheet Figure 3C, unit inferred, read-out: EC50
[10] = summary EC50 per compound (mean over assay dates), the unit is taken from the neighbouring EC50 (uM) column, read-out: Reported Metric
[11] = Figure 1E summary value per compound, repeated on each replicate line, read-out: Reported Metric (EC50 summarised over assay dates)
[12] = fit per assay date/plate (c2), repeated on the replicate lines of one date, read-out: EC50

Chain of Ae. aegypti NPYLR7 (U5N1H5 entry or part of it): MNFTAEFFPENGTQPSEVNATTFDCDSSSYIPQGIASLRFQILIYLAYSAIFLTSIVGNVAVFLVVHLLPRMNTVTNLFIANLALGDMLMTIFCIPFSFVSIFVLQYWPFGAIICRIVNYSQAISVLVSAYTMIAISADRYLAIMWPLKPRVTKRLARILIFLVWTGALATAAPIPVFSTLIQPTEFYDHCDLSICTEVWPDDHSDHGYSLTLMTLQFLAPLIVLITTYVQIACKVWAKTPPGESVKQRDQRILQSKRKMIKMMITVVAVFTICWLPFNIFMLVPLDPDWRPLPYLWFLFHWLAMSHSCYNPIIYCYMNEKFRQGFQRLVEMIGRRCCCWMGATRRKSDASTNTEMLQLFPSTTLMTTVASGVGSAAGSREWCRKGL

Row | SMILES | EC50 [1, 3] | EC50 [1, 4] | Attraction (relative to saline) [2] | EC50 [1, 5] | EC50 [1, 6] | activation at 33.3333 µM [1, 7] | activation at 100 µM [1, 8] | EC50 [1, 9] | EC50 [1, 10] | activation at 3.7037 µM [1, 7] | activation at 11.1111 µM [1, 7] | other results
1 | Cc1nc(NC(=N)N)nc2cc(OC(F)F)ccc12 [TDI-012615] | 1.62 µM | 1.62 µM | 0.94 | – | – | – | – | – | – | – | – | RFU ([1]; 0.00169350878084303uM): 74 RFU and 66 RFU; RFU ([1]; 0.00508052634252909uM): 74 RFU and 63 RFU; RFU ([1]; 0.0152415790275873uM): 71 RFU and 60 RFU; RFU ([1]; 0.0457247370827618uM): 57 RFU and 73 RFU; RFU ([1]; 0.137174211248285uM): 57 RFU and 91 RFU; RFU ([1]; 0.411522633744856uM): 153 RFU and 157 RFU; RFU ([1]; 1.23456790123457uM): 207 RFU and 271 RFU; RFU ([1]; 3.7037037037037uM): 247 RFU and 267 RFU; RFU ([1]; 11.1111111111111 uM): 339 RFU and 333 RFU; RFU ([1]; 33.333333 uM): 353 RFU and 317 RFU; RFU ([1]; 100 uM): 434 RFU and 405 RFU; EC50 ([1]; Figure 1E, EC50 of the single assay date/plate, read-out: EC50): 1.31 µM and 1.93 µM; EC50 ([1]; Figure 1E, metric reported per compound, repeated on every replicate line, read-out: Reported Metric (EC50)): 1.62 µM
2 | Cc1nc(NC(=N)N)nc2cc(OCC(F)(F)F)ccc12 [TDI-014168] | – | 4.26 µM | 1.03 | 4.26 µM | 4.26 µM | 80.4% | 74.2% | 4.26 µM | 4.26 µM | – | – | Host-seeking relative to saline (test compound % host-seeking/average matched saline % host-seeking) ([2]; listed as TDI-04168): 1.07
3 | COc1ccc(COc2ccc3c(C)nc(NC(=N)N)nc3c2)cc1 [TDI-013000] | 0.0277 µM | 0.0277 µM | 0.925 | – | – | – | – | – | – | – | – | EC50 [1, 11]: 0.0277 µM; EC50 [1, 12]: 0.0817 µM and 0.0282 µM; EC50 ([1]; summary value per compound, matches the mean of the EC50 (uM) values of the assay dates, column head prints no unit, Figure 1 Panel E, read-out: Reported Metric): 0.0277 µM
4 | Cc1nc(NC(=N)N)nc2cc(OCc3ccc(S(C)(=O)=O)cc3)ccc12 [TDI-014182] | 0.222 µM | 0.222 µM | 0.9 | 0.222 µM | – | 80.3% | – | 0.222 µM | 0.222 µM | 77.6% | 90.2% | activation at 0.4115 µM [1, 7]: 32%; activation at 1.2346 µM [1, 7]: 62.2%
5 | CCOc1cc2c(C)nc(NC(=N)N)nc2cc1OCc1ccccc1 [TDI-013758] | – | 8.53 µM | 0.78 | 8.53 µM | 8.53 µM | – | 80.6% | 8.53 µM | 8.53 µM | – | – | Host-seeking relative to saline (test compound % host-seeking/average matched saline % host-seeking) ([2]; listed as TDI-03758): 1.17
6 | COc1cc2c(C)nc(NC(=N)N)nc2cc1OCc1ccccc1 [TDI-012943] | 0.0545 µM | 0.0545 µM | 1.035 | – | – | – | – | – | – | – | – | EC50 [1, 11]: 0.0545 µM; EC50 [1, 12]: 0.0446 µM and 0.119 µM
7 | CNc1nc(NC(=N)N)nc2cc(OCc3ccc(OC)cc3)c(OC)cc12 [TDI-014185] | 0.0175 µM | 0.0175 µM | 0.79 | 0.0175 µM | – | – | – | 0.0175 µM | 0.0175 µM | – | 79.9% | activation at 0.0457 µM ([1]; HEK-293T, 0.0457 uM, single replicate, normalised response): 70.6%; activation at 0.1372 µM ([1]; HEK-293T, 0.1372 uM, single replicate, normalised response): 69.2%
8 | COc1ccc(COc2ccc3c(C)nc(NC(=N)N)nc3c2)cn1 [TDI-014173] | 1.32 µM | 1.32 µM | 0.88 | 1.32 µM | – | 101% | – | 1.32 µM | 1.32 µM | 83.8% | 74.1% | activation at 0.4115 µM [1, 7]: 47.7%; activation at 1.2346 µM [1, 7]: 53.6%
9 | COc1ccc(OCc2ccc3c(C)nc(NC(=N)N)nc3c2)cc1 [TDI-014175] | 0.547 µM | 0.548 µM | 0.905 | 0.547 µM | – | – | 117% | 0.547 µM | 0.547 µM | 89.7% | 98.4% | activation at 0.4115 µM [1, 7]: 35.1%; activation at 1.2346 µM [1, 7]: 65.9%
10 | Cc1nc(NC(=N)N)nc2cc(OCC3CCOC3)ccc12 (stereo not shown) [TDI-014174] | – | 5.31 µM | 1 | 5.31 µM | 5.31 µM | 92.2% | 102% | 5.31 µM | 5.31 µM | 42% | – | Host-seeking relative to saline (test compound % host-seeking/average matched saline % host-seeking) ([2]; listed as TDI-04174): 1.41
11 | Cc1nc(NC(=N)N)nc2cc(OC3CCCc4ccccc43)ccc12 (stereo not shown) [TDI-014183] | – | 13.7 µM | 0.88 | 13.7 µM | 13.7 µM | – | – | 13.7 µM | 13.7 µM | – | – | Host-seeking relative to saline (test compound % host-seeking/average matched saline % host-seeking) ([2]; listed as TDI-04183): 0.97
